Patent US7291627B2, “Dihydroimidazo[5.1-a]-beta-carboline derivatives, method for their preparation, and their application as a drug” (MACEF, priority 2001, dated 2007)

Test system: JA 657 chicks
Experiment: Chick sleep/sedation test (IM injection, 90 minute observation)
Assay type: in vivo
Conditions: for Sed (sedation time as % of the period) / TA (time to torpor between injection and first stage of sleep) / TS (duration of the first sleep) / Tsed (total sedation time over the period): 90 min observation; for TS (mins) Placebo diff'ce: extension of first sleep compared with test controls
Procedure: The dihydroimidazo[5,1-a]-β-carboline derivatives of the invention, in particular those in the form of the methyl sulfonate, (soluble), were tested in chicks, and certain compounds that were active in the chick were administered in single doses to six Beagle dogs of both sexes for a polysomnographic study of at least 4 hours duration.
JA 657 chicks from Couvoir Gauguet, 44 Le Pin, were accustomed for at least 6 days to an alternating program of light and darkness with 12 hours of daylight and 12 hours of darkness at a regulated temperature of 25±2° C. They were fed ad libitum and were placed under test compounds in a vivarium in groups of 3 individuals with a mean weight of 100±10 g on the day of the test. At that age in this species, there is no effective meningeal (hemato-encephalic) barrier. The test products were injected in 3 doses (1, 3 and 10 mg/kg) intramuscularly (IM) in solution or in an aqueous suspension (1 drop of Tween 80 per ml), each to two batches of 3 chicks which were observed over 90 minutes. For each test series (18 vivaria), there was at least one batch of negative control chicks receiving the same volume (0.2 ml IM) of water for injectable preparations.
During the 90 minute observation period, the chicks were strongly stimulated every 15 minutes by presenting a full feeding trough, and each 5 minute period was given a grade from among the following 5 states, corresponding to the state of alertness over that period:
Mobile, sitting alert, drowsy, asleep, sleep-like state. The parameters studied were the time to torpor (TA) passed between injection and the first stage of sleep, the duration of the first sleep (TS) and the total sedation time over the period (Tsed), expressed in minutes and as a % of the period (Sed).
To compare the results of tests carried out at different dates, the extension of the duration of the first sleep TS compared with the test controls was recorded.

Row | SMILES | Sed (sedation time as % of the period) (Dose: 1 mg/kg) [%] | TA (time to torpor between injection and first stage of sleep) (Dose: 1 mg/kg) [min] | TS (duration of the first sleep) (Dose: 1 mg/kg) [min] | Tsed (total sedation time over the period) (Dose: 1 mg/kg) [min] | TS (mins) Placebo diff'ce (Dose: 1 mg/kg) [min] | Sed (sedation time as % of the period) (Dose: 3 mg/kg) [%] | TA (time to torpor between injection and first stage of sleep) (Dose: 3 mg/kg) [min] | TS (duration of the first sleep) (Dose: 3 mg/kg) [min] | Tsed (total sedation time over the period) (Dose: 3 mg/kg) [min] | TS (mins) Placebo diff'ce (Dose: 3 mg/kg) [min] | Sed (sedation time as % of the period) (Dose: 10 mg/kg) [%] | TA (time to torpor between injection and first stage of sleep) (Dose: 10 mg/kg) [min] | TS (duration of the first sleep) (Dose: 10 mg/kg) [min] | Tsed (total sedation time over the period) (Dose: 10 mg/kg) [min] | TS (mins) Placebo diff'ce (Dose: 10 mg/kg) [min]
1 | CCCc1ncc2n1CCc1c-2[nH]c2ccc(OC)cc12 [Example 7, 8-methoxy-3-propyl-5,6-dihydroimidazo[5,1-a]-β-carboline] | 41.4 | 16.5 | 16 | 46 | 16 | 41 | 16.5 | 27 | 45.5 | 27 | 48.2 | 12.5 | 38.5 | 53.5 | 38.5
2 | CCCc1ncc2n1CCc1c-2n(C)c2ccc(OC)cc12.CS(=O)(=O)O [Example 8, 8-methoxy-11-methyl-3-propyl-5,6-dihydro-imidazo[5,1-a]-β-carboline methane sulfonate] | 42.2 | 16 | 21.5 | 38 | 21 | 60 | 8.5 | 33 | 54 | 32.7 | 76.1 | 5.5 | 41 | 68.5 | 40.7
3 | COc1ccc2c(c1)c1c(n2C)-c2cnc(C)n2CC1.CS(=O)(=O)O [Example 9, 8-methoxy-3,11-dimethyl-5,6-dihydroimidazo-[5,1-a]-β-carboline methane sulfonate] | 27.2 | 22 | 3 | 24.5 | 2.8 | 29.4 | 17.5 | 13.5 | 26.5 | 13 | 42.8 | 16.5 | 15.5 | 38.5 | 15
4 | CS(=O)(=O)O.Cc1ncc2n1CCc1c-2n(C)c2ccc(O)cc12 [Example 10, 8-hydroxy-3,11-dimethyl-5,6-dihydroimidazo-[5,1-a]-β-carboline methane sulfonate] | 42.2 | 15 | 5 | 38 | 4.7 | 12.2 | 30 | 1 | 11 | 0.7 | 30 | 11.5 | 12.5 | 27 | 12
